Measurements published in patent publication US20220119375A1, “3-ARYLOXY-3-ARYL-PROPYLAMINE COMPOUND AND USES THEREOF” (Zhangzhou Pien Tze Huang Pharmaceutical Co., Ltd., priority 2018, published 2022).
Like-named read-outs stand apart in the source and are kept apart here.

Experiments:
TRPA1 = target: T1, TRPA1 (Mus musculus, UniProt Q8BLA8); assay: IonWorks Barracuda (IWB) automated patch clamp detection of TRPA1 inhibitory activity; format: cell-based, mouse (mTRPA1); conditions: for IC50: automated patch clamp (IWB)
T1 construct: expressed in transfected cells; host or cells: HEK293
Experimental: The inhibitory activity of some compounds in the Examples of present invention on transient receptor potential channel protein TRPA1 was tested in this example. The compound of formula A (WO2010075353) was used as a positive control compound: […]
IonWorks Barracuda (IWB) automated patch clamp detection was used as test method: HEK293 cells stably expressing TRPA1 were placed in DMEM medium containing 15 μg/mL Blasticidin S HCl, 200 μg/mL Hygromycin B and 10% FBS in the T175 culture flask, and cultured in 37° C., 5% CO2 incubator. When the cell density reached about 80%, the culture medium was removed, rinsed with phosphate buffered saline (PBS) without calcium and magnesium. 3 mL of Trypsin was added to digest for 2 min, 7 mL of culture medium was added to terminate the digestion. The cells were collected to 15 mL centrifuge tube and centrifuged at 800 rpm for 3 min. After the supernatant was removed, the cells were added to appropriate volume of extracellular fluid for re-suspending, and the cell density was controlled at 2-3×10^6/mL for IWB experiment. Extracellular fluid formulation (in mM): 140 NaCl, 5 KCl, 1 MgCl2, 10 HEPES, 0.5 EGTA, 10 Glucose (pH 7.4); intracellular fluid formulation (in mM): 140 CsCl, 10 HEPES, 5 EGTA, 0.1 CaCl2, 1 MgCl2 (pH 7.2). 28 mg/mL of amphotericin B was freshly prepared with DMSO on the day of experiment, and then final concentration of 0.1 mg/mL was prepared with intracellular fluid.
Population patch clamp (PPC) plate was used in IWB experiment. The entire detection process was automatically carried out by the instrument. Extracellular fluid was added into 384 wells of PPC plate, and 6 µL of the intracellular fluid was added into plenum (under the PPC plate), 6 µL of cell fluid was added for sealing test, and finally the intracellular fluid in plenum was replaced with amphotericin B-containing intracellular fluid to establish a whole-cell recording mode after perforating sealed cells. The sampling frequency for recording TPRA1 current was 10 kHz, the cells were clamped at 0 mV, the voltage stimulation command (channel protocol) was a ramp voltage from −100 mV to +100 mV for 300 ms. This voltage stimulation was applied every 10 s, mTRPA1 current was induced by 300 µM AITC.
Data recording and current amplitude measurement export were carried out by IWB software (version 2.5.3, Molecular Devices Corporation, Union City, Calif.). No statistics was recorded for holes with sealing impedance lower than 20 MΩ. The original current data was corrected by software for leakage reduction. TRPA1 current amplitude was measured at +100 mV. […] If IC50 value of HC030031 exceeded 3 times the average IC50 value previously obtained on each plate, it would be re-tested. The dose-effect curve of compounds and IC50 were fitted and calculated by GraphPad Prism 5.02 (GraphPad Software, San Diego, Calif.).

[1] = test system: ICR mice, acetic acid writhing pain model; assay: mice acetic acid writhing pain model; format: in vivo, mouse; conditions: 10 mg/kg by gavage, within 30 min; saline group 49 times
Experimental: Male ICR mice, weighed 22-25 g, were fasted but allowed to drink water freely for 2 h before administration. All ICR mice were weighed and grouped randomly, and the number of animals in each group was >10. […] The test compound was IC-1 (the compound prepared in Example 9), and the administration dosages were 5 mg/kg and 10 mg/kg. […] When concave abdomen, stretched trunk and hind claw, and high buttocks appeared, one number point was recorded. […] After administration, the fewer visceral pains in the mice were, the stronger the analgesic effect of the compound was.

[2] = test system: C57 mice, hot plate pain model; assay: mice hot plate pain model; format: in vivo, mouse; conditions: 10 mg/kg intraperitoneal, hot plate 55±0.1° C., within 60 minutes
Experimental: SPF-grade C57 male mice were placed at hot plate with constant 55±0.1° C. […] If the pain reaction of mice was observed, the mice were taken out immediately to prevent mice from scalding. […] The test compounds were freshly prepared on the day of administration. 0.9% NaCl physiological saline solution was prepared as solvent for later use. Appropriate amount of test compounds were added into required volume of physiological saline and fully suspended, and the concentration of the drug compound in preparation was 1 mg/ml. The standard volume of administration to mice was 10 ml/kg (or 0.1 ml/10 g). […] The administration volume was 10 ml/kg. […] Hot plate observation index: the reaction time of mice on the hot plate at 55±0.1° C. (Time latency). Measurement and recording were conducted at 3 h before administration and 15 min, 30 min, and 60 min after administration. Maximum possible effect (MPE) % was used to evaluate analgesic effect of each compound, i.e., MPE %=[(Post drug latency-baseline latency)/(30-baseline latency)]×100. MPE % at different time points was recorded. The higher the value of MPE % was, the stronger the analgesic effect of the compound was.

[3] = test system: C57BL/6 mice, formalin pain model; assay: mice formalin pain model (Example 44); format: in vivo, mouse; conditions: 20 mg/kg intraperitoneal, phase I (0-10 min) and phase II (10-60 min), vs saline group
Experimental: Before the start of experiment, the mice were allowed to adapt to the experimental environment for 72 h without fasting. The test drug was administrated by intraperitoneal injection at a dose of 20 mg/kg, and then the mice were placed in a transparent, ventilated plexiglass cylinder for 1 h, and then 20 μl of 4% formalin solution was injected into the left hind plantar of mice of each group by microinjector. The claw pain response of mice was real-time recorded by miniature camera. The number of times of lifting (1 min/time), shaking (2 min/time), and licking (3 min/time) left claw and the time length of licking left claw were used as indicators of pain response, the cumulative scoring and licking time in two stages of 0-10 min (phase I, acute pain phase) and 10-60 min (phase II, inflammatory pain phase) were observed and recorded, and the statistical analysis was conducted.

human TRPA1 channel = target: T2, human TRPA1 channel (Homo sapiens, UniProt O75762); assay: manual patch clamp detection of TRPA1 inhibitory activity; format: cell-based
T2 construct: expressed in transfected cells; host or cells: HEK293
Experimental: The HEK293 cell line stably expressing human TRPA1 channel was placed in T75 culture flask with DMEM medium containing 15 μg/mL Blasticidin S HCl, 200 μg/mL Hygromycin B and 10% FBS, and cultured in incubator at 37° C. and 5% CO2. When the cell density reached about 80%, the culture medium was removed, the residue was rinsed with phosphate buffered saline (PBS) without calcium and magnesium. 2 mL of trypsin was added to digest for 2 minutes, and 8 mL of culture medium was added to terminate the digestion. The cells were collected to 15 mL centrifuge tube and centrifuged at 800 rpm for 3 min. After the supernatant was removed, an appropriate volume of extracellular fluid was added to re-suspend the cells.
In manual patch clamp detection, HEKA system (Patch Master software) was used together with EPC-10 amplifier to record the whole cell current of TRPA1 stably transfected cell line at room temperature. intracellular fluid formulation for whole cell recording was as follows (mM): 140 CsCl, 10 HEPES, 5 EGTA, 0.1 CaCl2, 1 MgCl2 (pH 7.2, osmotic pressure 295-300 mOsm); Ca^2+-free extracellular fluid formulation for recording was as follows (mM): 140 NaCl, 5 KCl, 0.5 EGTA, 1 MgCl2, 10 Glucose, 10 HEPES (pH 7.4, osmotic pressure 300-310 mOsm). Glass microelectrode resistance used for patch clamp recording was 2-4 MΩ, the sampling frequency was 10 kHz, the filter frequency was 2.9 kHz, the cell clamp was 0 mV, and the voltage stimulation command (channel protocol) was a linear voltage from −100 mV to +100 mV for 300 ms, then restored to 0 mV clamping potential. The recording was performed every 2 s. The hTRPA1 current was induced by 100 μM AITC. To ensure the accuracy of current recording, the series resistance was used for 60% compensation during recording.
Data recording and current amplitude measurement export were completed by Patch Master software. Cells with sealing impedance lower than 500 MΩ, w were not included in the statistics. The original current data were corrected by software for leakage reduction, and the hTRPA1 current amplitude was measured at +100 mV. The compound dose-effect curve and IC50 were fitted and calculated by GraphPad Prism 5.02 (GraphPad Software, San Diego, Calif.).

[4] = HEK293 cells stably expressing TRPA1, AITC-induced current at +100 mV, read-out: IC50 (μM) on TRPA1 in the patch clamp detection test

T1 sequence (Q8BLA8 whole entry): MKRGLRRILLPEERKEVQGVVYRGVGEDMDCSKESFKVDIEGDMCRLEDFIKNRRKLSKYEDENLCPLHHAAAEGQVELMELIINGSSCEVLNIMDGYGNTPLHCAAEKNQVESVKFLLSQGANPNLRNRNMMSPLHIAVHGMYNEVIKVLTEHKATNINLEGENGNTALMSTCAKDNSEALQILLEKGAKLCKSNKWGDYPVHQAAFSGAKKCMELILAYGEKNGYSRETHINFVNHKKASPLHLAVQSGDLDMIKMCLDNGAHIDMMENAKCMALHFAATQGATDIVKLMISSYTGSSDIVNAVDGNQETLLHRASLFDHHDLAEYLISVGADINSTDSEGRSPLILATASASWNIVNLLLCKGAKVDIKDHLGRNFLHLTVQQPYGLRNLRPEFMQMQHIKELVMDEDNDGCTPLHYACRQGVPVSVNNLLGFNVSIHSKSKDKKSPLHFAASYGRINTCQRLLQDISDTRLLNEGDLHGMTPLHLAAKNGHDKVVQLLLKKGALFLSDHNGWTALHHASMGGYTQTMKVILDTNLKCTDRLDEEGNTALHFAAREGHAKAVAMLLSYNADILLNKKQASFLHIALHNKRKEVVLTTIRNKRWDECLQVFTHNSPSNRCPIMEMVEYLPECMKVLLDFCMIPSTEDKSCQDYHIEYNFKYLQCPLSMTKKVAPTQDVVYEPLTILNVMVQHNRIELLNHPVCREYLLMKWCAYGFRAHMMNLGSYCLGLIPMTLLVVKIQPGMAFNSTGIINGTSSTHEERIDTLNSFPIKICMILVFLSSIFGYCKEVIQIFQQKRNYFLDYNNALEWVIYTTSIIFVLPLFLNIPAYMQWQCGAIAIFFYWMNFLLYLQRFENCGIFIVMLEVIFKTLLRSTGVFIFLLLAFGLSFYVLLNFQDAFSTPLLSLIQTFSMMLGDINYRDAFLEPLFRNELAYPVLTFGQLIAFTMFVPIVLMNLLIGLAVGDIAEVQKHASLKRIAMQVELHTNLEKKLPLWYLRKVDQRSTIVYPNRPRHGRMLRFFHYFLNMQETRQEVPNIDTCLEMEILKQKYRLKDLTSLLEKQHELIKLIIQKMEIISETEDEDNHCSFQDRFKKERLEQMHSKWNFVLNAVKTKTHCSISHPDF
T2 sequence (O75762 whole entry): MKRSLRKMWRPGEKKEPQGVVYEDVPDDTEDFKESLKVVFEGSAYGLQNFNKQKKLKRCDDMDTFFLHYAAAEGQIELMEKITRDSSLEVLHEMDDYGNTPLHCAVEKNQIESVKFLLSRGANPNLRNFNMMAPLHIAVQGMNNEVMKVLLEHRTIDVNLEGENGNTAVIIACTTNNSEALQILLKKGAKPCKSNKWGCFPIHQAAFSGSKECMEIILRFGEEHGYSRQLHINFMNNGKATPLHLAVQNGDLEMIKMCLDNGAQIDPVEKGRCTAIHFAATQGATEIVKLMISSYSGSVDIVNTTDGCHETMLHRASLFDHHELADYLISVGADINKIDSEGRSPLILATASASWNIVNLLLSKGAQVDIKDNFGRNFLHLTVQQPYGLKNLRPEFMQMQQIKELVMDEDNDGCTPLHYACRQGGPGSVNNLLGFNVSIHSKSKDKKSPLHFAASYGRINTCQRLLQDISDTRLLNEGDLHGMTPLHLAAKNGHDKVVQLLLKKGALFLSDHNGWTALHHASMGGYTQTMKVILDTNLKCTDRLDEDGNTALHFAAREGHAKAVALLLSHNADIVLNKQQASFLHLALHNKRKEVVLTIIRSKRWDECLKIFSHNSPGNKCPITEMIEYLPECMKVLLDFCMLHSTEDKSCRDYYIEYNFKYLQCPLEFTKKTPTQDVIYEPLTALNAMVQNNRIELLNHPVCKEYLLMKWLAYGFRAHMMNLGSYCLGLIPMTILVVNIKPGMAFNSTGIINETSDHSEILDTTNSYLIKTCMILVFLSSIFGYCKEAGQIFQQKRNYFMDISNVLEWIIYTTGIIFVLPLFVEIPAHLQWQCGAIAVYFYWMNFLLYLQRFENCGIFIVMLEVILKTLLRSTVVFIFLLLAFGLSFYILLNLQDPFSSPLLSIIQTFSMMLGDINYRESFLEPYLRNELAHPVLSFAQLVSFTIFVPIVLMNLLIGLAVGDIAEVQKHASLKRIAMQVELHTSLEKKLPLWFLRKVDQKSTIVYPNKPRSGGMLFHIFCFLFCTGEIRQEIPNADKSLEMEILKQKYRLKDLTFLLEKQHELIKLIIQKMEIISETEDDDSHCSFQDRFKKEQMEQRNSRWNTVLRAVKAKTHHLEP

Row | SMILES | IC50 (TRPA1; [4]) | IC50 (TRPA1; read-out: IC50 on TRPA1) | other results
1 | NCC[C@H](Oc1cccc2ccoc12)c1ccco1 [Compound IC-25, (S)-3-(benzofuran-7-yloxy)-3-(furan-2-yl) propyl-1-amine] | 1 to 5 µM |  | 
2 | COc1ccc2c(c1)c(CC(=O)O)c(C)n2C(=O)c1ccc(Cl)cc1 [indomethacin, reference compound] |  |  | number of appearance of writhing reaction [1]: 28 times
3 | CNCC[C@H](Oc1cccc2ccoc12)c1cnco1 [Compound IC-29, (S)-3-(benzofuran-7-yloxy)-N-methyl-3-(oxazol-5-yl)propyl-1-amine] | 5 to 10 µM |  | 
4 | NCC[C@H](Oc1cccc2ccoc12)c1ccsc1 [Compound IC-26, (S)-3(benzofuran-7-yloxy)-3-(thiophen-3-yl) propyl-1-amine] | 5 to 10 µM |  | 
5 | CNCC[C@H](Oc1cccc2ccccc12)c1cccs1 [Duloxetine (R configuration), Duloxetine, reference compound] | 20 to 50 µM | 48.5 µM | 
6 | NCC[C@H](Oc1cccc2ccoc12)c1cccs1 [Compound IC-23, (S)-3-(benzofuran-7-yloxy)-3-(thiophen-2-yl) propyl-1-amine] | 1 to 5 µM | < 5 µM | analgesic effect (MPE %) on hot plate [2]: very potent analgesic effect
7 | CN(C)CC[C@H](Oc1cccc2ccoc12)c1cccs1 [Compound IC-8, (S)-3-(benzofuran-7-yloxy)-N,N-dimethyl-3-(thiophen-2-yl)propyl-1-amine] | 1 to 5 µM | < 5 µM | 
8 | CNCC[C@H](Oc1cccc2c1CCC2)c1cccs1 [Compound IC-10, (S)-3-(2,3-dihydro-1H-inden-4-yloxy)-N-methyl-3-(2-thienyl)propyl-1-amine] | 5 to 10 µM |  | analgesic activity, licking time [3]: almost completely inhibited licking claw behavior caused by pain; the IC50 of compound C1/the IC50 of compound IC-10 (TRPA1; TRPA1, automated patch clamp): about 2.5 fold; IC50 (human TRPA1 channel; HEK293 stably expressing human TRPA1, 100 μM AITC, +100 mV): 1.12 µM; ratio of IC50 of S configuration of duloxetine to IC50 of the compound, manual patch clamp (human TRPA1 channel; manual patch clamp): 3.9; analgesic effect (MPE %) on hot plate [2]: stronger than those of gabapentin and duloxetine
9 | CN1[C@H]2C[C@H](OC(=O)[C@H](CO)c3ccccc3)C[C@@H]1[C@@H](O)C2 [anisodamine, reference compound] |  |  | number of appearance of writhing reaction [1]: 27 times

Now from value to compound, other results behind:

Row | IC50 (TRPA1; [4]) | IC50 (TRPA1; read-out: IC50 on TRPA1) | SMILES | other results
10 | 1 to 5 µM | < 5 µM | NCC[C@H](Oc1cccc2ccoc12)c1ccoc1 [Compound IC-24, (S)-3-(benzofuran-7-yloxy)-3-(furan-3-yl)propyl-1-amine] | 
11 | 1 to 5 µM | < 5 µM | CNCC[C@H](Oc1cccc2ccoc12)c1ccco1 [Compound IC-4, (S)-3-(benzofuran-7-yloxy)-N-methyl-3-(furan-2-yl)propyl-1-amine] | 
12 | 1 to 5 µM | < 5 µM | CNCC[C@H](Oc1cccc2ccoc12)c1ccoc1 [Compound IC-3, (S)-3-(benzofuran-7-yloxy)-N-methyl-3-(furan-3-yl)propyl-1-amine] | 
13 | 5 to 10 µM |  | CNCC[C@H](Oc1cccc2ccoc12)c1ccsc1 [Compound IC-2, (S)-3-(benzofuran-7-yloxy)-N-methyl-3-(thiophen-3-yl)propyl-1-amine] | 
